Test results from patent US20260158028A1, “USE OF QUINOLINONE DERIVATIVE IN TREATMENT OF IMMUNE THROMBOCYTOPENIA” (CHIA TAI TIANQING PHARMACEUTICAL GROUP CO., LTD., priority 2021, published 2026).

System: adult subjects with persistent or chronic immune thrombocytopenia
Assay: Clinical trial for immune thrombocytopenia (platelet counts, safety)
Assay type: in vivo, human
Conditions: for platelet count: 600 mg/d; for clinical efficacy in treating immune thrombocytopenia: adult persistent or chronic immune thrombocytopenia; for overall safety: tablets orally once daily on an empty stomach, 28-day cycles, 6 subjects; for percentage of subjects with at least one platelet count of ≥30×10^9/L and an increase of ≥2 times the baseline in platelet count / percentage of subjects with at least one platelet count of ≥50×10^9/L: within 12 weeks of treatment; for percentage of subjects with at least one platelet count of ≥30×10^9/L and an increase of ≥2 times the baseline in platelet count: in the absence of emergency treatment, evaluated patients
Description: Test drug: tablets of the compound of formula I, 50 mg/tablet or 200 mg/tablet; Administration regimen: orally taken once daily on an empty stomach, with 28 consecutive days of administration as one treatment cycle.
Neutrophil count (ANC)>1.5×10^9/L; hemoglobin (Hb)>90 g/L; • b. Total bilirubin (TBIL), alanine aminotransferase (ALT), and aspartate aminotransferase (AST)≤1.5 times the upper limit of normal (ULN); serum creatinine≤1.5×ULN, and creatinine clearance rate≥50 mL/min; • c. […] Prothrombin time (PT) is within the normal range±3 s, and activated partial thromboplastin time (APTT) is within the normal range±10 s; • e. The subject has no history of coagulation disorders other than immune thrombocytopenia. • 8) A female subject of childbearing age should agree to take contraceptive measures (such as intrauterine devices, contraceptives, or condoms) during the study and for 90 days after the study; serum pregnancy test results should be negative within 7 days before enrollment, and the subject must be a non-lactating one; a male subject should agree to take contraceptive measures during the study and for 6 months after the study.
Efficacy was evaluated according to the platelet counts, WHO bleeding scores, and emergency treatment received of the subjects. The effective rate of platelet count increase was used as a main measure of efficacy, and for evaluation criteria, reference was made to American Society of Hematology 2019 Guidelines for Immune Thrombocytopenia and Chinese Guidelines for Diagnosing and Treating Adult Primary Immune Thrombocytopenia (2020 Edition).
A total of 6 subjects were enrolled, with 3 in the 400 mg group (the dose for 2 of them was increased to 600 mg) and 3 in the 600 mg group.

[1] = 400 mg and 600 mg groups, listed as tablets of the compound of formula I
[2] = tablets orally once daily, 400 mg and 600 mg groups

Cn1c(=O)c(Nc2ccc(N3CCN(C4COC4)CC3)cn2)cc2c(F)c(-c3cc[nH]n3)ccc21 [compound of formula I]
platelet count (Subject 1, previous third-line therapy, baseline mean 22, D 3): 5.2e+10 L⁻¹ | platelet count (Subject 1, previous third-line therapy, baseline mean 22, D 11): 2.2e+11 L⁻¹ | platelet count (Subject 1, previous third-line therapy, baseline mean 22, D 18): 7e+09 L⁻¹ | platelet count (Subject 1, previous third-line therapy, baseline mean 22, D 25): 9e+09 L⁻¹ | platelet count (Subject 1, previous third-line therapy, baseline mean 22, W 5 D 1): 8.9e+10 L⁻¹ | platelet count (Subject 1, previous third-line therapy, baseline mean 22, W 6 D 1): 8.4e+10 L⁻¹ | platelet count (Subject 1, previous third-line therapy, baseline mean 22, W 7 D 1): 3.5e+10 L⁻¹ | platelet count (Subject 1, previous third-line therapy, baseline mean 22, W 8 D 1): 1.31e+11 L⁻¹ | platelet count (Subject 1, previous third-line therapy, baseline mean 22, W 9 D 1): 2.24e+11 L⁻¹ | platelet count (Subject 1, previous third-line therapy, baseline mean 22, W 10 D 1): 2.5e+10 L⁻¹ | platelet count (Subject 1, previous third-line therapy, baseline mean 22, W 12 D 1): 1e+11 L⁻¹ | platelet count (Subject 2, previous second-line therapy, baseline mean 6.5, D 3): 1e+10 L⁻¹ | platelet count (Subject 2, previous second-line therapy, baseline mean 6.5, D 11): 3.1e+10 L⁻¹ | platelet count (Subject 2, previous second-line therapy, baseline mean 6.5, D 18): 3.5e+10 L⁻¹ | platelet count (Subject 2, previous second-line therapy, baseline mean 6.5, D 25): 2.1e+10 L⁻¹ | platelet count (Subject 3, previous first-line therapy, baseline mean 33.5, D 3): 5.8e+10 L⁻¹ | platelet count (Subject 3, previous first-line therapy, baseline mean 33.5, D 11): 8.3e+10 L⁻¹ | platelet count (Subject 3, previous first-line therapy, baseline mean 33.5, D 18): 3.4e+10 L⁻¹ | clinical efficacy in treating immune thrombocytopenia: can effectively improve the platelet count | clinical efficacy in treating immune thrombocytopenia (listed as tablets of the compound of formula I): excellent clinical efficacy | overall safety (400 mg and 600 mg groups): good safety | overall safety [1]: controllable | dose-limiting toxicity (DLT) events [2]: no dose-limiting toxicity (DLT) events | treatment-related adverse events of grade 3 or higher [2]: no treatment-related adverse events of grade 3 or higher | percentage of subjects with at least one platelet count of ≥30×10^9/L and an increase of ≥2 times the baseline in platelet count (400 mg and 600 mg groups): relatively high | percentage of subjects with at least one platelet count of ≥30×10^9/L and an increase of ≥2 times the baseline in platelet count [1]: 50% | percentage of subjects with at least one platelet count of ≥50×10^9/L (400 mg and 600 mg groups): relatively high | percentage of subjects with at least one platelet count of ≥50×10^9/L [1]: 33.3%
